Converted amounts (≈) assume the structure as drawn. Like-named read-outs stand apart in the source and are kept apart here.
Columns and labels:
[1] = tested on: Mycobacterium intracellulare; test: Broth dilution MIC, Mycobacterium intracellulare strains (Test 6); assay type: cell-based; details: read-out: Minimum Inhibitory Concentration
[2] = tested on: Plasmodium berghei KBG 173; test: In vivo antimalarial activity in mice (Test 5); parameters: key to In vivo Antimalarial Activity: C: Mice surviving 60 days are considered cured; Active: Activity is defined as a 100% increase in the mean survival time of the treated mice compared to the control group; Toxicity is defined as a decrease in the mean survival time of the treated mice as compared to the control group; details: for ED50: Plasmodium berghei, computed estimate of the dose required to cure 50% of the mice; for In vivo Antimalarial Activity: mice, C = Cure (cured/treated mice)
Description: Compounds were tested against Plasmodium berghei KBG 173 malaria in mice following the procedure described by T. S. Osdene, P. B. Russell, and L. Rane [J. Med. Chem. 10:431-434 (1967)]. Five mice were tested at each dosage level. Mice surviving 60 days are considered cured. Toxicity is defined as a decrease in the mean survival time of the treated mice as compared to the control group. Activity is defined as a 100% increase in the mean survival time of the treated mice compared to the control group.

Mycobacterium smegmatis = test: MIC against Mycobacterium smegmatis strains (Test 4); assay type: cell-based; details: Mycolicibacterium smegmatis, read-out: Minimum Inhibitory Concentration
Description: Compounds were tested against four strains of Mycobacterium smegmatis. The test procedure used was as mentioned by N. E. Morrison [Int. J. of Leprosy 39:34-43 (1971)]. The strain numbers refer to Mycobacterium smegmatis ATCC 607, a DDS-resistant daughter strain, a Rifampin-resistant daughter strain, and a Clofazimine-resistant daughter strain, respectively.

Staphylococcus aureus = test: Macro broth dilution MIC, Staphylococcus aureus isolates (Test 1); assay type: cell-based; details: 24 h, read after 24 hours, read-out: Minimum Inhibitory Concentration
Description: (§1) Compounds were tested against five isolates of Staphylococcus aureus and five isolates of Group D Enterococcus. The bacteria used were isolated from patients at the Walter Reed Army Medical Center, Washington, D.C. The test procedure used was the macro broth dilution method in duplicate as outlined by J. C. Sherris on pages 414-415 in "Manual of Clinical Microbiology," 2nd ed., E. Lennette, E. H. Spaulding, and J. P. Truant, Ed. (American Society for Microbiology, Washington, D.C., 1974). Each compound was dissolved in DMSO (12.8 mg/mL) and then diluted with Mueller-Hinton broth to obtain the desired dilutions. Tubes containing the highest quantities of DMSO with no compound present were run as controls.

Group D Enterococcus = test: Macro broth dilution MIC, Group D Enterococcus isolates (Test 1); assay type: cell-based; details: 24 h, read after 24 hours, read-out: Minimum Inhibitory Concentration
Description: as §1

Neisseria gonorrhoeae = test: Agar dilution MIC, Neisseria gonorrhoeae isolates (Test 3); assay type: cell-based; details: 24 h, read-out: Minimum Inhibitory Concentration
Description: Compounds were tested against six Neisseria gonorrhoeae isolates. The bacteria used were provided by the Department of Bacterial Diseases of the Walter Reed Army Institute of Research. The test procedure used was the agar dilution method in duplicate as outlined by J. C. Sherris on pages 411-412 (loc. cit.). GC Medium (Difco) with a 2% defined supplement added as described by D. S. Kellogg et al. [J. Bact. 85:1274-1279 (1963)] was used as the media. The compounds were dissolved in DMSO (1.0 mg/mL), diluted with GC broth (GC Medium without agar) to the appropriate concentration, and added to the GC Medium at 55°-56° C. The latter was then poured and allowed to solidify. A penicillin standard was also prepared with initial dilutions as described by J. C. Sherris followed by dilutions with GC broth and addition to the GC Medium at 55°-56° C. as above. The inoculum was 1:200 GC broth dilution of a suspension of colony isolates after the suspension was adjusted visually to the turbidity standard described by J. M. Matsen and A. L. Barr on page 422 in "Manual of Clinical Microbiology," 2nd ed., E. Lennette, E. H. Spaulding, and J. P. Truant, Ed. (American Society for Microbiology, Washington, D.C., 1974). The plates were inoculated with a replicator and incubated at 37° C. under 5-10% carbon dioxide.

Neisseria meningitidis = test: Macro broth dilution MIC, Neisseria meningitidis isolates (Test 2); assay type: cell-based; details: Neisseria meningitidis, 24 h, read after 24 hours, read-out: Minimum Inhibitory Concentration
Description: Compounds were tested against five isolates of Neisseria meningitidis. The bacterial isolates were provided by the Department of Bacterial Diseases of the Walter Reed Army Institute of Research. The test procedure used was the macro broth dilution method in duplicate outlined by J. C. Sherris on pages 414-415 (loc. cit.). The test compounds and controls were prepared as in Test 1 above. Ampicillin and penicillin standards were initially diluted as described by J. C. Sherris on pages 411-412 (loc. cit.) followed by dilution with Mueller-Hinton broth. The tubes were incubated at 37° C. under 5-10% carbon dioxide.

[3] = Mycobacterium intracellulare strain I
[4] = Mycobacterium intracellulare strain II
[5] = Mycobacterium intracellulare strain III
[6] = Mycobacterium intracellulare strain IV
[7] = Mycobacterium intracellulare strain V
[8] = Mycobacterium intracellulare strain VI
[9] = Staphylococcus aureus isolate I
[10] = Staphylococcus aureus isolate II
[11] = Staphylococcus aureus isolate III
[12] = Staphylococcus aureus isolate IV
[13] = Staphylococcus aureus isolate V
[14] = Group D Enterococcus isolate II
[15] = Group D Enterococcus isolate III
[16] = Group D Enterococcus isolate IV

CCC1CCCCN1C(=S)NN=C(C)c1ccccn1 (centres unmarked) [AA, 2-Ethylpiperidine-1-thiocarboxylic acid 2-[1-(2-pyridyl)ethylidene]hydrazide]
MIC [1, 3]: 10 µg/mL (≈ 34.4 µM)
MIC [1, 4]: 1 µg/mL (≈ 3.44 µM)
MIC [1, 5]: 1 µg/mL (≈ 3.44 µM)
MIC [1, 6]: 1 µg/mL (≈ 3.44 µM)
MIC [1, 7]: 10 µg/mL (≈ 34.4 µM)
MIC [1, 8]: 10 µg/mL (≈ 34.4 µM)
ED50 [2]: 113 mg/kg
MIC (Mycobacterium smegmatis; ATCC607, Mycobacterium smegmatis strain I (ATCC 607)): 5 µg/mL (≈ 17.2 µM)
MIC (Mycobacterium smegmatis; Mycobacterium smegmatis strain II (DDS-resistant daughter strain)): 10 µg/mL (≈ 34.4 µM)
MIC (Mycobacterium smegmatis; Mycobacterium smegmatis strain III (Rifampin-resistant daughter strain)): 10 µg/mL (≈ 34.4 µM)
MIC (Mycobacterium smegmatis; Mycobacterium smegmatis strain IV (Clofazimine-resistant daughter strain)): 10 µg/mL (≈ 34.4 µM)

CCOC(=O)N1CCN(C(=S)NN=C(C)c2ccccn2)CC1 [Compound I, 1,4-Diaza-4-carboethoxycyclohexane-1-thiocarboxylic acid 2-[1-(2-pyridyl)ethylidene]hydrazide]
In vivo Antimalarial Activity ([2]; Dosage Level 10 mg/kg): Active
In vivo Antimalarial Activity ([2]; Dosage Level 20 mg/kg): Active
In vivo Antimalarial Activity ([2]; Dosage Level 160 mg/kg): Toxic
In vivo Antimalarial Activity ([2]; Dosage Level 640 mg/kg): Toxic

CC(=NNC(=S)NC12CC3CC(CC(C3)C1)C2)c1ccccn1 [S, 2-Acetylpyridine 4-(1-adamantyl)-3-thiosemicarbazone]
MIC (Staphylococcus aureus; [9]): 2 µg/mL (≈ 6.09 µM)
MIC (Staphylococcus aureus; [10]): 2 µg/mL (≈ 6.09 µM)
MIC (Staphylococcus aureus; [11]): 4 µg/mL (≈ 12.2 µM)
MIC (Staphylococcus aureus; [12]): 2 µg/mL (≈ 6.09 µM)
MIC (Staphylococcus aureus; [13]): 1 µg/mL (≈ 3.04 µM)
MIC [1, 3]: 10 µg/mL (≈ 30.4 µM)
MIC [1, 4]: 1 µg/mL (≈ 3.04 µM)
MIC [1, 5]: 1 µg/mL (≈ 3.04 µM)
MIC [1, 6]: 10 µg/mL (≈ 30.4 µM)
MIC [1, 7]: 10 µg/mL (≈ 30.4 µM)
MIC [1, 8]: 10 µg/mL (≈ 30.4 µM)
MIC (Group D Enterococcus; Group D Enterococcus isolate I): 2 µg/mL (≈ 6.09 µM)
MIC (Group D Enterococcus; [14]): 1 µg/mL (≈ 3.04 µM)
MIC (Group D Enterococcus; [15]): 2 µg/mL (≈ 6.09 µM)
MIC (Group D Enterococcus; [16]): 2 µg/mL (≈ 6.09 µM)
MIC (Group D Enterococcus; Group D Enterococcus isolate V): 2 µg/mL (≈ 6.09 µM)

CC(=NNC(=S)N1CC2CCC(CC2)C1)c1ccccn1 [L, 3-Azabicyclo[3.2.2]nonane-3-thiocarboxylic acid 2-[1-(2-pyridyl)ethylidene]hydrazide]
MIC (Staphylococcus aureus; [9]): 1 µg/mL (≈ 3.31 µM)
MIC (Staphylococcus aureus; [10]): 1 µg/mL (≈ 3.31 µM)
MIC (Staphylococcus aureus; [11]): 1 µg/mL (≈ 3.31 µM)
MIC (Staphylococcus aureus; [12]): 1 µg/mL (≈ 3.31 µM)
MIC (Staphylococcus aureus; [13]): 1 µg/mL (≈ 3.31 µM)
MIC [1, 3]: 10 µg/mL (≈ 33.1 µM)
MIC [1, 4]: 1 µg/mL (≈ 3.31 µM)
MIC [1, 5]: 1 µg/mL (≈ 3.31 µM)
MIC [1, 6]: 0.1 µg/mL (≈ 0.331 µM)
MIC [1, 7]: 0.1 µg/mL (≈ 0.331 µM)
MIC [1, 8]: 0.1 µg/mL (≈ 0.331 µM)
MIC (Neisseria gonorrhoeae; Neisseria gonorrhoeae isolate 135, read after 24 hours): 0.031 µg/mL (≈ 0.102 µM)
MIC (Neisseria gonorrhoeae; Neisseria gonorrhoeae isolate 161, read after 24 hours): 0.016 µg/mL (≈ 0.0529 µM)
MIC (Neisseria gonorrhoeae; Neisseria gonorrhoeae isolate 278, read after 24 hours): 0.031 µg/mL (≈ 0.102 µM)
MIC (Neisseria gonorrhoeae; Neisseria gonorrhoeae isolate 455, read after 24 hours): 0.031 µg/mL (≈ 0.102 µM)
MIC (Neisseria gonorrhoeae; Neisseria gonorrhoeae isolate 456, read after 24 hours): 0.031 µg/mL (≈ 0.102 µM)
MIC (Neisseria gonorrhoeae; Neisseria gonorrhoeae isolate 602, read after 24 hours): 0.031 µg/mL (≈ 0.102 µM)
MIC (Neisseria meningitidis; Neisseria meningitidis isolate 7957): 0.031 µg/mL (≈ 0.102 µM)
MIC (Neisseria meningitidis; Neisseria meningitidis isolate 7990): 0.062 µg/mL (≈ 0.205 µM)
MIC (Neisseria meningitidis; Neisseria meningitidis isolate 8005): < 0.031 µg/mL
MIC (Neisseria meningitidis; Neisseria meningitidis isolate 8006): 0.062 µg/mL (≈ 0.205 µM)
MIC (Neisseria meningitidis; Neisseria meningitidis isolate 8011): 0.125 µg/mL (≈ 0.413 µM)
ED50 [2]: 59 mg/kg
MIC (Group D Enterococcus; Group D Enterococcus isolate I): 2 µg/mL (≈ 6.61 µM)
MIC (Group D Enterococcus; [14]): 2 µg/mL (≈ 6.61 µM)
MIC (Group D Enterococcus; [15]): 2 µg/mL (≈ 6.61 µM)
MIC (Group D Enterococcus; [16]): 2 µg/mL (≈ 6.61 µM)
MIC (Group D Enterococcus; Group D Enterococcus isolate V): 2 µg/mL (≈ 6.61 µM)
